Measurements reported in BindingDB's records for doi:10.1021/acs.jmedchem.6b00993 (Purdue University, 2016).

Target: Serine/threonine-protein phosphatase 5 (Homo sapiens) (UniProt P53041)
Experiment: Inhibition of His-tagged PP5 (unknown origin) expressed in Escherichia coli BL21 cells using para-nitrophenyl phosphate as substrate incubated for 5 to 10 mins by microplate reader based spectrophotometric analysis

Chain of Serine/threonine-protein phosphatase 5 (Homo sapiens) (P53041 whole entry, looked up): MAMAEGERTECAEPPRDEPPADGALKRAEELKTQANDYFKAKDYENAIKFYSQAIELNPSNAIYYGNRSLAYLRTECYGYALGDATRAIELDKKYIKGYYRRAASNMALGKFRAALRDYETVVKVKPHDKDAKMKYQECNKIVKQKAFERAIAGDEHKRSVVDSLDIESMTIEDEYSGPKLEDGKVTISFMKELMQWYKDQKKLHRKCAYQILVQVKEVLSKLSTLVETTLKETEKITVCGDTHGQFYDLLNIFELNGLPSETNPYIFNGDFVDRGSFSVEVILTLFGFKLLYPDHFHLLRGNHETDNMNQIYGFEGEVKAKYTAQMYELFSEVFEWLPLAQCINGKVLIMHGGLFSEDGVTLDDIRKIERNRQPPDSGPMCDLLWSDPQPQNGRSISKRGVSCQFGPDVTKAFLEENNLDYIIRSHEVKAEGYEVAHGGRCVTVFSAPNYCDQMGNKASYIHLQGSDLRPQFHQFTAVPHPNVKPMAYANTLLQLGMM

Row | IC50 [µM] | SMILES
1 | > 200 | O=C(Nc1ccc(N2CCOCC2)cc1)C(c1ccccc1)S(=O)(=O)O (centres undefined)
2 | > 200 | O=C(Nc1ccc2nc(C(F)(F)F)[nH]c2c1)C(c1ccccc1)S(=O)(=O)O (centres undefined)
3 | > 200 | O=C(Nc1cnc2ccccc2c1)C(c1ccccc1)S(=O)(=O)O (centres undefined)
4 | > 200 | O=C(Nc1nc2ccccc2s1)C(c1ccccc1)S(=O)(=O)O (centres undefined)
